Molecules are shown by their SMILES. Where two headings read alike, the source gives them in different places. Some results are limits rather than exact numbers.

This experiment deals with T1, sodium-proton exchanger of subtype 3 (NHE3) (Homo sapiens, UniProt P48764).
T1 construct: expressed in transfected cells
T1 sequence (P48764 26-834): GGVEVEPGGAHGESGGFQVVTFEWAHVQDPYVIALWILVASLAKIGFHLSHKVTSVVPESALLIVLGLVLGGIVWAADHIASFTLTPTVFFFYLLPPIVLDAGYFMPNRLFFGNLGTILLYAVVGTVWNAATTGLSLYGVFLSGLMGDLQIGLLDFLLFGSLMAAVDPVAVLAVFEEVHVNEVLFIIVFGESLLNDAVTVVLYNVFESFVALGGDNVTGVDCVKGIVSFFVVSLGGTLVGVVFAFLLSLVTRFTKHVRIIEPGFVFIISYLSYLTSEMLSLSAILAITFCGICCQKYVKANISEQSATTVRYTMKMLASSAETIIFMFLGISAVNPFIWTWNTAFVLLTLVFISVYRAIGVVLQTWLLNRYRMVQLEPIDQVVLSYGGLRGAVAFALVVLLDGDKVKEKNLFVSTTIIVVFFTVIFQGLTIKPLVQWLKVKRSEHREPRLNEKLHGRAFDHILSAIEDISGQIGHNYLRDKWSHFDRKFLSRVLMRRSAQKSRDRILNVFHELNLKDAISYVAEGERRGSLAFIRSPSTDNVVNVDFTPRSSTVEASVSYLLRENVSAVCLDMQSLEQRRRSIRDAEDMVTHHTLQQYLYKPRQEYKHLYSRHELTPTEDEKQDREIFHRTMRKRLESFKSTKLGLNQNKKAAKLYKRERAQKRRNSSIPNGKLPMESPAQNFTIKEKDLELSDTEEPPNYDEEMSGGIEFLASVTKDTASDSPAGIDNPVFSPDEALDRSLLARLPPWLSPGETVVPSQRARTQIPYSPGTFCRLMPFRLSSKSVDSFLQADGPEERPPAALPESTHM
Put plainly: Recovery of intracellular pH (pHi) after acidification in LAP1 cells stably expressing NHE3 (BCECF fluorescence, FLIPR). In kind it is cell-based. The note with it: LAP1 cells stably expressing NHE3, pH recovery after acidification, range 1 is % inhibition at 10 μM.

The mark [1] stands for this setting: read-out: Activity range (inhibitory effect on NHE3).

For `CS(=O)(=O)c1ccc(O[C@H]2c3cc(Cl)cc(Cl)c3C[C@@H]2N2CCC[C@@H](NCCF)C2)cc1` [Example 222, {(R)-1-[trans-(1S,2S)-4,6-dichloro-1-(4-methanesulfonylphenoxy)indan-2-yl]piperidin-3-yl}-(2-fluoroethyl)amine], the IC50 under setting [1] was less than 1000 nM. As for `CC(=O)Nc1cccc(O[C@H]2c3ccccc3C[C@@H]2N2CCCC2)n1` (racemic) [Example 668, N-[6-(rac-trans-(1,2)-2-pyrrolidin-1-ylindan-1-yloxy)-pyridin-2-yl]acetamide], the IC50 under setting [1] was less than 1000 nM. Consider `NC(=O)Cc1c[nH]c2ccc(O[C@@H]3c4ccccc4C[C@H]3N3CCC(N)C3)cc12` (mixture of isomers) [Example 387, 2-{5-[rac-trans-(1,2)-2-(3-aminopyrrolidin-1-yl)indan-1-yloxy]-1H-indol-3-yl}acetamide], for which the IC50 under setting [1] lay within 1000 to 10000 nM. On to `CS(=O)(=O)c1ccc(O[C@@H]2c3ccccc3C[C@H]2NC2CCCCCC2)cc1` (racemic) [Example 711, Cycloheptyl-[rac-trans-(1,2)-1-(4-methanesulfonyl-phenoxy)-indan-2-yl]-amine], for which, under setting [1], the inhibition at 10 µM was in the range of 20 to 50%. Turning to `Cc1cc(=O)cc(C)n1-c1ccc(O[C@H]2c3cc(Cl)cc(Cl)c3C[C@@H]2N2CC[C@@H](O)C2)c(F)c1` [Example 324, 1-{4-[(1S,2S)-4,6-dichloro-2-((R)-3-hydroxypyrrolidin-1-yl)indan-1-yloxy]-3-fluorophenyl}-2,6-dimethyl-1H-pyridin-4-one], the IC50 under setting [1] was less than 1000 nM. As to `CN1CCN(c2ccc(O[C@H]3c4cc(Cl)cc(Cl)c4C[C@@H]3N3CC[C@@H](O)C3)cc2)C1=O` [Example 332, 1-{4-[trans-(1S,2S)-4,6-dichloro-2-((R)-3-hydroxypyrrolidin-1-yl)indan-1-yloxy]phenyl}-3-methylimidazolidin-2-one], the IC50 under setting [1] was 1000 to 10000 nM. For `Cc1noc(C)c1-c1ccc(O[C@H]2c3cc(Cl)cc(Cl)c3C[C@@H]2N2CC[C@@H](O)C2)cc1` [Example 135, (R)-1-{trans-(1S,2S)-4,6-dichloro-1-[4-(3,5-dimethylisoxazol-4-yl)phenoxy]indan-2-yl}pyrrolidin-3-ol], under setting [1], the inhibition at 10 µM is 20 to 50%. As for `CS(=O)(=O)c1ccc(O[C@H]2c3cc(Cl)cc(Cl)c3C[C@@H]2N2CCC3(CCNC3)C2)cc1` (mixture of isomers) [Example 378, 2-[trans-(1S,2S)-4,6-dichloro-1-(4-methanesulfonylphenoxy)indan-2-yl]-2,7-diaza-spiro[4.4]nonane], the IC50 under setting [1] is less than 1000 nM.

In the case of `CCc1nnc(C(C)C)n1-c1ccc(O[C@H]2c3cc(Cl)cc(F)c3C[C@@H]2N2CC[C@@H](O)C2)cc1` [Example 722, (R)-1-{trans-(1S,2S)-6-Chloro-1-[4-(3-ethyl-5-isopropyl-[1,2,4]triazol-4-yl)-phenoxy]-4-fluoro-indan-2-yl}-pyrrolidin-3-ol], the IC50 under setting [1] is 1000 to 10000 nM. Turning to `NC(=O)Nc1cccc(O[C@@H]2c3ccccc3C[C@H]2N2CCC(N)C2)c1` (mixture of isomers) [Example 234, {3-[rac-trans-(1,2)-2-(3-aminopyrrolidin-1-yl)indan-1-yloxy]phenyl}urea], the IC50 under setting [1] fell in the range of 1000 to 10000 nM.

Consider `N#Cc1ccc(O[C@H]2c3cc(Cl)cc(F)c3C[C@@H]2N2CC[C@@H](O)C2)c(F)c1` [Example 557, 4-[trans-(1S,2S)-6-chloro-4-fluoro-2-((R)-3-hydroxypyrrolidin-1-yl)indan-1-yloxy]-3-fluorobenzonitrile], for which the IC50 under setting [1] was in the range of 1000 to 10000 nM. On the same count and under the same terms, under `N#Cc1c(F)cccc1O[C@@H]1c2ccccc2C[C@H]1N1C[C@H]2CNC[C@H]2C1` (racemic) [Example 398, 2-fluoro-6-[rac-trans-(1,2)-2-(hexahydropyrrolo[3,4-c]pyrrol-2-yl)indan-1-yloxy]benzonitrile] stands 1000 to 10000 nM. As to `NS(=O)(=O)c1ccc(O[C@@H]2c3ccccc3C[C@H]2NC2CCCCCC2)c(F)c1` (racemic) [Example 713, 4-(rac-trans-(1,2)-2-Cycloheptylamino-indan-1-yloxy)-3-fluoro-benzenesulfonamide], under setting [1], the IC50 was 1000 to 10000 nM.

Regarding `NS(=O)(=O)c1ccc(O[C@H]2c3ccccc3C[C@@H]2NCc2ccccc2)c(F)c1` (racemic) [Example 459, 4-(2-benzylaminoindan-1-yloxy)-3-fluorobenzenesulfonamide], the inhibition at 10 µM under setting [1] was in the range of 20 to 50%. For the compound `CC(=O)Nc1cccc(O[C@@H]2c3ccccc3C[C@H]2N2CCC(CN)CC2)c1` (racemic) [Example 688, N-{3-[rac-trans-(1,2)-2-(4-aminomethylpiperidin-1-yl)indan-1-yloxy]phenyl}acetamide], the IC50 under setting [1] was in the range of 1000 to 10000 nM. Turning to `O=C1CCCN1c1cccc(O[C@H]2c3ccccc3C[C@@H]2N2CCCC2)c1` (racemic) [Example 255, 1-[3-(rac-trans-(1,2)-2-pyrrolidin-1-ylindan-1-yloxy)phenyl]pyrrolidin-2-one], the IC50 (Activity range (inhibitory effect on NHE3)) lay within 1000 to 10000 nM. `N[C@H]1CCCN([C@@H]2Cc3ccccc3[C@H]2Oc2ccc(-n3ccnc3)cc2)C1` (racemic) [Example 181, (S)-1-[rac-trans-(1,2)-1-(4-imidazol-1-ylphenoxy)indan-2-yl]piperidin-3-ylamine]: the IC50 under setting [1] was in the range of 1000 to 10000 nM. On the same count and under the same terms, under `NC(=O)c1cccc(O[C@@H]2c3ccccc3C[C@H]2N2CCC[C@H](N)C2)c1` (racemic) [Example 413, 3-[rac-trans-(1,2)-2-((S)-3-aminopiperidin-1-yl)indan-1-yloxy]benzamide] stands 1000 to 10000 nM; under `N[C@@H]1CCCN([C@@H]2Cc3ccccc3[C@H]2Oc2ccc3c(c2)OCO3)C1` (racemic) [Example 83, (R)-1-[rac-trans-(1,2)-1-(benzo[1,3]dioxol-5-yloxy)indan-2-yl]piperidin-3-ylamine], 1000 to 10000 nM. Consider `Cc1cc(F)ccc1O[C@@H]1c2ccccc2C[C@H]1N1C[C@H]2CNC[C@H]2C1` (racemic) [Example 16, 2-[rac-trans-(1,2)-1-(4-fluoro-2-methylphenoxy)indan-2-yl]octahydropyrrolo[3,4-c]pyrrole], for which the IC50 under setting [1] was 1000 to 10000 nM. `Cc1ccc(O[C@H]2c3ccccc3CC[C@@H]2N2CCC[C@@H](N)C2)c(Br)c1` (racemic) [Example 35, (R)-1-[rac-trans-(1,2)-1-(2-bromo-4-methylphenoxy)-1,2,3,4-tetrahydronaphthalen-2-yl]piperidin-3-ylamine]: the inhibition at 10 µM under setting [1] was 20 to 50%.

Turning to `CC(C)c1nccn1-c1ccc(O[C@H]2c3cc(Cl)cc(Cl)c3C[C@@H]2N2CC[C@@H](O)C2)cc1` [Example 732, (R)-1-{trans-(1S,2S)-4,6-Dichloro-1-[4-(2-isopropyl-imidazol-1-yl)-phenoxy]-indan-2-yl}-pyrrolidin-3-ol], the IC50 under setting [1] lay within 1000 to 10000 nM.

For `CN(C1CCC1)[C@@H]1Cc2ccccc2[C@H]1Oc1ccc(S(C)(=O)=O)cc1` (racemic) [Example 734, Cyclobutyl-[rac-trans-(1,2)-1-(4-methanesulfonyl-phenoxy)-indan-2-yl]-methyl-amine], the IC50 under setting [1] lay in the range of 1000 to 10000 nM.

For `CC(=O)Nc1cccc(O[C@H]2c3cc(Cl)cc(Cl)c3C[C@@H]2N2CC[C@@H](O)C2)c1` [Example 696, N-{3-[trans-(1S,2S)-4,6-dichloro-2-((R)-3-hydroxypyrrolidin-1-yl)indan-1-yloxy]phenyl}acetamide], the IC50 under setting [1] is less than 1000 nM. On to `N#Cc1cc(Br)ccc1O[C@H]1c2ccccc2CC[C@@H]1N1CCC[C@@H](N)C1` (racemic) [Example 369, 2-[rac-trans-(1,2)-2-((S)-3-aminopiperidin-1-yl)-1,2,3,4-tetrahydronaphthalen-1-yloxy]-5-bromobenzonitrile], for which the inhibition at 10 µM under setting [1] was in the range of 20 to 50%. The same measure, in the same setting: under `COc1cc(Cl)ccc1O[C@H]1c2ccccc2CC[C@@H]1N1CCC[C@@H](N)C1` (racemic) [Example 64, (R)-1-[rac-trans-(1,2)-1-(4-chloro-2-methoxyphenoxy)-1,2,3,4-tetrahydronaphthalen-2-yl]piperidin-3-ylamine] stands 20 to 50%.

For the compound `N[C@@H]1CCCN([C@H]2CCc3ccccc3[C@@H]2Oc2cccc3[nH]nnc23)C1` (racemic) [Example 29, (R)-1-[rac-trans-(1,2)-1-(1H-benzotriazol-4-yloxy)-1,2,3,4-tetrahydronaphthalen-2-yl]piperidin-3-ylamine], under setting [1], the IC50 was in the range of 1000 to 10000 nM. On to `COc1cccc(F)c1O[C@H]1c2ccccc2CC[C@@H]1N1CCC[C@@H](N)C1` (racemic) [Example 44, (R)-1-[rac-trans-(1,2)-1-(2-fluoro-6-methoxyphenoxy)-1,2,3,4-tetrahydronaphthalen-2-yl]piperidin-3-ylamine], for which the inhibition at 10 µM under setting [1] lay in the range of 20 to 50%. Consider `N[C@@H]1CCCN([C@H]2Cc3ccccc3[C@@H]2Oc2ccc(S(N)(=O)=O)cc2)C1` [Example 552, 4-[trans-(1S,2S)-2-((R)-3-aminopiperidin-1-yl)indan-1-yloxy]benzenesulfonamide], for which, under setting [1], the IC50 is less than 1000 nM.

The values above are taken from patent publication US8822449B2, “Substituted aminoindanes and analogs thereof, and the pharmaceutical use thereof” (Sanofi, priority 2008, dated 2014).
